Assay results as given in US20110218103A1, “Fluoroalkyl-substituted 2-amidobenzimidazoles” (BAYER CROPSCIENCE AG, priority 2010, published 2011).

Legend:
[1] = test system: Brassica napus (BRSNS); assay: Drought stress test on crop plants, spray application in greenhouse, visual damage rating; format: in vivo; settings: mean of three results
Procedure: Seeds of monocotyledonous and dicotyledonous crop plants were placed in sandy loam in wood-fiber pots, covered with soil and cultivated in a greenhouse under good growth conditions. The test plants were treated at the early leaf stage (BBCH10-BBCH13). To ensure uniform water supply before commencement of stress, the potted plants were supplied with the maximum amount of water immediately beforehand by dam irrigation and, after application, transferred in plastic inserts in order to prevent subsequent, excessively rapid drying. The inventive compounds, formulated in the form of wettable powders (WP), wettable granules (WG), suspension concentrates (SC) or emulsion concentrates (EC), were sprayed onto the green parts of the plants as an aqueous suspension at an equivalent water application rate of 600 l/ha with addition of 0.2% wetting agent (agrotin). Substance application was followed immediately by stress treatment of the plants (cold or drought stress). For cold stress treatment, the plants were kept under the following controlled conditions: Drought stress was induced by gradual drying out under the following conditions: “day”: 14 hours with illumination at 26° C. “night”: 10 hours without illumination at 18° C. The duration of the respective stress phases was guided mainly by the state of the untreated, stressed control plants and thus varies from crop to crop. It was ended (by re-irrigating or transfer to a greenhouse with good growth conditions) as soon as irreversible damage is observed on the untreated, stressed control plants. In the case of dicotyledonous crops, for example oilseed rape and soya, the duration of the drought stress phase was between 3 and 5 days, in the case of monocotyledonous crops, for example wheat, barley or corn, between 6 and 10 days. The duration of the cold stress phase varied between 12 and 14 days. The end of the stress phase was followed by an approx. 5-7-day recovery phase, during which the plants were once again kept under good growth conditions in a greenhouse. In order to rule out any influence of the effects observed by any fungicidal action of the test compounds, it was additionally ensured that the tests proceed without fungal infection and without infection pressure. After the recovery phase had ended, the intensities of damage were rated visually compared to untreated, unstressed controls of the same age (in the case of drought stress) or the same growth stage (in the case of cold stress). The intensity of damage was first assessed as a percentage (100%=plants have died, 0%=like control plants). These values were then used to calculate the efficacy of the test compounds (=percentage reduction in the intensity of damage as a result of substance application) by the following formula: [formula] EF: efficacy (%) DVus: damage value of the untreated, stressed control DVts: damage value of the plants treated with test compound The tables below list mean values in each case from three results of the same test. Effects of selected compounds of the formula (I) under drought stress: BRSNS=Brassica napus

[2] = test system: Triticum aestivum (TRZAS); assay: as above; format: in vivo; settings: mean of three results
Procedure: Seeds of monocotyledonous and dicotyledonous crop plants were placed in sandy loam in wood-fiber pots, covered with soil and cultivated in a greenhouse under good growth conditions. The test plants were treated at the early leaf stage (BBCH10-BBCH13). To ensure uniform water supply before commencement of stress, the potted plants were supplied with the maximum amount of water immediately beforehand by dam irrigation and, after application, transferred in plastic inserts in order to prevent subsequent, excessively rapid drying. The inventive compounds, formulated in the form of wettable powders (WP), wettable granules (WG), suspension concentrates (SC) or emulsion concentrates (EC), were sprayed onto the green parts of the plants as an aqueous suspension at an equivalent water application rate of 600 l/ha with addition of 0.2% wetting agent (agrotin). Substance application was followed immediately by stress treatment of the plants (cold or drought stress). For cold stress treatment, the plants were kept under the following controlled conditions: Drought stress was induced by gradual drying out under the following conditions: “day”: 14 hours with illumination at 26° C. “night”: 10 hours without illumination at 18° C. The duration of the respective stress phases was guided mainly by the state of the untreated, stressed control plants and thus varies from crop to crop. It was ended (by re-irrigating or transfer to a greenhouse with good growth conditions) as soon as irreversible damage is observed on the untreated, stressed control plants. In the case of dicotyledonous crops, for example oilseed rape and soya, the duration of the drought stress phase was between 3 and 5 days, in the case of monocotyledonous crops, for example wheat, barley or corn, between 6 and 10 days. The duration of the cold stress phase varied between 12 and 14 days. The end of the stress phase was followed by an approx. 5-7-day recovery phase, during which the plants were once again kept under good growth conditions in a greenhouse. In order to rule out any influence of the effects observed by any fungicidal action of the test compounds, it was additionally ensured that the tests proceed without fungal infection and without infection pressure. After the recovery phase had ended, the intensities of damage were rated visually compared to untreated, unstressed controls of the same age (in the case of drought stress) or the same growth stage (in the case of cold stress). The intensity of damage was first assessed as a percentage (100%=plants have died, 0%=like control plants). These values were then used to calculate the efficacy of the test compounds (=percentage reduction in the intensity of damage as a result of substance application) by the following formula: [formula] EF: efficacy (%) DVus: damage value of the untreated, stressed control DVts: damage value of the plants treated with test compound The tables below list mean values in each case from three results of the same test. Effects of selected compounds of the formula (I) under drought stress: TRZAS=Triticum aestivum

Compound | EF (BRSNS), efficacy = percentage reduction in the intensity of damage ([1]; 50 g/ha) | EF (TRZAS), efficacy = percentage reduction in the intensity of damage ([2]; 250 g/ha) | EF (BRSNS), efficacy = percentage reduction in the intensity of damage ([1]; 25 g/ha) | EF (TRZAS), efficacy = percentage reduction in the intensity of damage ([2]; 25 g/ha)
NC(=O)c1cccc2[nH]c(C(F)(F)C(F)(F)C(F)(F)F)nc12 [1-17] | >5% | >5% |  | 
NC(=O)c1cccc2[nH]c(C(F)(F)C(F)(F)F)nc12 [1-2, 2-(pentafluoroethyl)-1H-benzimidazole-4-carboxamide] |  |  | >5% | >5%
